Laboratory results reported in patent US20150018411A1, “COMPOUNDS AS PPAR BETA/DELTA INHIBITORS FOR TREATING PPAR BETA/DELTA-MEDIATED DISEASES” (PHILIPPS-UNIVERSITAT MARBURG, priority 2011, published 2015).
Entries after “also recorded” stand apart in the source; their conditions may differ.

Legend:
GST-PPAR beta/delta LBD [1] = biological target: T1, GST-PPAR beta/delta LBD (Homo sapiens, UniProt Q03181); assay: Competitive in vitro ligand binding, TR-FRET, displacement of Fluormone Pan-PPAR-Green; details: fluorescence ratio 520 nm/495 nm
T1 construct: GST-PPAR beta/delta LBD (GST=glutathione S-transferase); purchased Invitrogen, Darmstadt, Germany
T1 sequence (Q03181 211-439 limits assumed): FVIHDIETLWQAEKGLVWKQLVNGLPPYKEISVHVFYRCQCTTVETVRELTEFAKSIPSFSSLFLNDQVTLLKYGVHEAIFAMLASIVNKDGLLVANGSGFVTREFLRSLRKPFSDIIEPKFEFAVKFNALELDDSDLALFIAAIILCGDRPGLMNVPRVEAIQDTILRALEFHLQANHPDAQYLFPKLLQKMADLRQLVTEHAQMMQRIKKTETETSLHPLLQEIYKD
Experimental: FIG. 1: Competitive in vitro ligand binding to PPAR beta/delta. • The displacement of ligand Fluormone® Pan-PPAR Green from recombinant GST-PPAR beta/delta ligand binding domain (LBD) by the substances of the present invention comparative compound (CC) 2, compound 1 (A), compound 2 (B), and compound 3 (C), compound 4 (D), compound 5 (E) is determined by TR-FRET analysis. Shown is the ratio of fluorescence intensity at 520 nm (fluorescein emission, excited by terbium emission) and 495 nm (terbium emission). All data points represent average values of triplicates (+/−standard deviation).
A) Competitive ligand-binding of the substances of this invention was measured in vitro using time-resolved fluorescence resonance energy transfer (TR-FRET) by competition with the commercially available fluorescent Fluormone® Pan-PPAR-Green for binding to the fusion protein GST-PPAR beta/delta LBD (GST=glutathione S-transferase; LBD=ligand binding domain) (Invitrogen, Darmstadt, Germany) in a VICTOR3V Multilabel Counter (WALLAC 1420; PerkinElmer Life and Analytical Sciences, Rodgau, Germany). The measurement was performed in 100 mM KC, 20 mM Tris pH 7.9, 0.01% Triton X100 and 1 μg/μL bovine serum albumin. GST is known to the expert in the field as suitable fusion partner for proteins. For this purpose, the ratio of fluorescence intensities at 520 nm (fluorescein emission excited by terbium emission) and at 495 nm (terbium emission) is determined.

PPAR beta/delta = biological target: T2, PPAR beta/delta (Homo sapiens, UniProt Q03181); assay: Agonist-induced transcriptional activity, luciferase reporter in WPMY-1 cells; assay type: cell-based; details: human WPMY-1 myofibroblasts, 500 nM substance, 500 nM agonist L165041
T2 construct: expressed in transfected cells; host or cells: WPMY-1 human myofibroblasts, transient transfection with PEI
T2 sequence (Q03181 1-441): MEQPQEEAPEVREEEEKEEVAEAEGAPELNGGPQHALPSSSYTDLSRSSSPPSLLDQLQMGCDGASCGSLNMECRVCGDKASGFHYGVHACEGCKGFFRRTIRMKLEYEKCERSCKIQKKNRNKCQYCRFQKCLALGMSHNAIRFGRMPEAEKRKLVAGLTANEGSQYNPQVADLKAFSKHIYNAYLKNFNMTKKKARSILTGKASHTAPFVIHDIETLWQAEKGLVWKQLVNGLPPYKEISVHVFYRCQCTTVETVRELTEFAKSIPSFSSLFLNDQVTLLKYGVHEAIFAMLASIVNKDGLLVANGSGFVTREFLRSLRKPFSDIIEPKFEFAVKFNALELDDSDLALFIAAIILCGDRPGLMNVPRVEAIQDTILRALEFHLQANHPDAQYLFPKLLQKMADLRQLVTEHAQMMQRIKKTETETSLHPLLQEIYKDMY
Experimental: FIG. 4: Effect of the substances of this invention comparative compound (CC) 2, compound 1, compound 5, compound 2 and compound 3 on the agonist-induced transcriptional activity of PPAR subtypes alpha (A), beta/delta (B) and gamma (C). • WPMY-1 cells are transiently transfected with a luciferase reporter plasmid. Four hours after transfection, cells are treated for 48 hours with the respective antagonist (500 nM), followed by a treatment with 300 nM of PPAR alpha agonist GW7647 (A), 500 nM of PPAR beta/delta agonist L165041 (B) or 300 nM of PPAR gamma agonist GW1929 (C). The relative induction is represented by the luciferase activity of the agonist-treated transfected cells in relation to solvent-treated transfected cells. Asterisks (**, *) indicate significant differences to untreated cells (after t-test; **: p<0.01; *: p<0.05). GW7647 is commercially available from Sigma-Aldrich (Steinheim, Germany). L165041 and GW1929 can be obtained from Biozol (Eching, Germany).
D) The influence of substances of this invention on the agonist-induced transcriptional activity of PPAR subtypes alpha, beta/delta or gamma is determined in WPMY-1 myofibroblasts transfected transiently with a luciferase reporter plasmid (LexA system) using polyethyleneimine (PEI) according to a method known to the expert. As agonists, substances GW7647 for PPAR alpha or L165041 for PPAR beta/delta or GW1929 for PPAR gamma known to the expert are used. WPMY-1 myofibroblast cells are initially cultured for example in a 12-well plate in DMEM medium (DMEM: Dulbecco's Modified Eagle Medium) according to a method known to the expert and to a confluence of 70% to 80%, and subsequently transfected with 2.5 μg of plasmid-DNA containing the luciferase reporter plasmid, expression plasmids for the respective PPAR subtypes and the Renilla-luciferase plasmid pRL-SV40 (Promega, Mannheim, Germany), and 2.5 μl PEI (1:1000 dilution, pH 7). Four hours after transfection, the cells are treated for 48 hours with 500 nM of the substances of this invention, and 24 later with 300 nM (GW7647 or GW1929, respectively) or 500 nM (L165041) of the respective agonist at 37° C. and 5% CO2 in an incubator. The luciferase assay is performed 48 hours after the first treatment according to the commercial method of the “dual-well-system” (pjk GmbH, Kleinblittersdorf, Germany), whereby for a normalization, not only the luciferase-, but also the Renilla activity is measured. Cells are initially lysed for this measurement, and 20 μl of the lysate is transferred into a white 96-well plate (Fisher Scientific, Hamburg, Germany). […] Mean values and standard deviation are calculated from values of three independent measurements.

GST-PPAR beta/delta LBD [2] = biological target: T1, GST-PPAR beta/delta LBD; assay: Ligand-induced binding of corepressor peptide SMRT-ID2, TR-FRET; assay type: biochemical; details: concentration dependent
Experimental: FIG. 2: Induction of corepressor peptide binding to GST-PPAR beta/delta ligand binding domain (LBD) in vitro in dependency of the concentration of the substances of this invention comparative compound (CC) 2, compound 1 (A), compound 2 (B), compound 3 (C), compound 4 (D) and compound 5 (E). The interaction of fluorescein-labeled SMRT-ID2 peptide with recombinant GST-PPAR beta/delta LBD bound to a terbium-labeled anti-GST antibody is determined by TR-FRET analysis. Shown is the ratio of fluorescence intensity at 520 nm (fluorescein emission, excited by terbium emission) and 495 nm (terbium emission). All data points represent average values of triplicates (+/−standard deviation).
B) The ligand-induced binding of the commercially available fluorescein-labeled corepressor peptide SMRT-ID2 ([…]) (Invitrogen, Darmstadt, Germany) to GST-PPAR beta/delta is for example measured by TR-FRET analysis using a terbium-labeled anti-GST antibody in a VICTOR3V Multilabel Counter (WALLAC 1420; PerkinElmer Life and Analytical Sciences, Rodgau, Germany). The measurement is performed in a buffer composed of 100 mM KC, 20 mM Tris pH 7.9, 0.01% Triton X100 and 1 μg/μL bovine serum albumin.

ANGPTL4 gene expression = ANGPTL4 gene expression (qPCR) in WPMY-1 myofibroblasts; assay type: cell-based, human; details: WPMY-1, 1 μM, 24 hours, compared to DMSO-treated cells
Experimental: FIG. 5: Influence of the substances of this invention comparative compound (CC) 2, compound 1, compound 5, compound 2 and compound 3 on ANGPTL4 gene expression. • (A) Comparison of relative ANGPTL4 expression, (B) mean inhibitory concentration of substances of this invention. (A) Human myofibroblasts (WPMY-1) are treated for 24 hours with the substances of this invention (1 μM), then RNA is isolated, the cDNA synthesized and analyzed by qPCR, normalized to L27 gene expression. (B) Titration of the effect of substances of this invention on the endogenous ANGPTL4 expression in WPMY-1 cells (left) or peritoneal mouse macrophages (right) after cells have been treated for six hours with the substances of this invention compound 1 and compound 2, respectively; RNA isolation, cDNA synthesis and qPCR as described for (A). The relative expression is calculated in relation to DMSO-treated cells. All values are average values of triplicates (+1-standard deviation). Asterisks (***, **, *) indicate significant differences to DMSO-treated cells (***: p<0.001 after t-test; *: p <0.05).
The influence of substances of this invention on PPAR-beta/delta regulated genes like for example ANGPTL4 which codes for the angiopoietin-like protein ANGPTL4 is assessed in different cells with a confluence of 70% to 80% in a 6-well cell culture plate. For this purpose, cultivated human myofibroblasts (WPMY-1), peritoneal mouse macrophages or cells of the human breast cancer cell line MDA-MB-231 are treated for 24 hours with 1 μM of the substances of this invention. Cells of the breast cancer cell line are in addition stimulated for 6 hours with TGF-beta2 (2 ng/ml) which is commercially available. Subsequently, RNA is isolated from the cells by procedures known to the expert and analyzed by quantitative PCR (qPCR, real time qPCR, RT-qPCR) also known to those skilled in the art. […]

Structure (SMILES)	competition with Fluormone Pan-PPAR-Green for binding to GST-PPAR beta/delta LBD (GST-PPAR beta/delta LBD [1])	agonist-induced transcriptional activity of PPAR beta/delta (luciferase induction) (PPAR beta/delta)	induction of interaction of PPAR beta/delta LBD with corepressor peptide SMRT-ID2 (GST-PPAR beta/delta LBD [2])	reduction of relative expression of the ANGPTL4 gene (ANGPTL4 gene expression)
COC(=O)c1sccc1S(=O)(=O)Nc1ccc(NCCC(C)C)cc1OC [compound 3, methyl 3-(N-(4-(isopentylamino)-2-methoxyphenyl)sulfamoyl)thiophene-2-carboxylate]	significant competition efficacy; also recorded: significant competition efficiency	inhibited in a PPAR subtype-specific manner	clearly demonstrate the interaction; also recorded: induce	
COC(=O)c1sccc1S(=O)(=O)Nc1ccc(NCc2ccccc2)cc1OC [compound 4, methyl 3-(N-(4-(benzylamino)-2-methoxyphenyl)sulfamoyl)thiophene-2-carboxylate]	significant competition efficacy; also recorded: significant competition efficiency		clearly demonstrate the interaction; also recorded: induce	
COC(=O)c1sccc1S(=O)(=O)Nc1ccc(N2CCOCC2)cc1OC [comparison compound 2, methyl 3-(N-(2-methoxy-4-morpholinophenyl)sulfamoyl)thiophene-2-carboxylate, reference compound]				up to 10%
